Assay results as given in patent US9409905B2, “Antibacterial compounds and methods for use” (PTC THERAPEUTICS, INC., priority 2011, dated 2016).
Converted amounts (≈) assume the structure as drawn.

Legend:
[1] = tested on: E. coli 25922; experiment: Antibacterial activity, microbroth dilution MIC (Table 1); type: cell-based, Escherichia coli; conditions: Escherichia coli; microbroth dilution; control Gram-negative E. coli 25922 strain; read-out: MIC, 25922
How it was run: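 MIC (μg/mL) is taken as the lowest concentration with no macroscopically visible growth. Strains tested by microbroth dilution: Gram-positive S. aureus 29213, control Gram-negative E. coli 25922, and super-sensitive E. coli BAS849.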

[2] = tested on: Pseudomonas aeruginosa (P. aeruginosa) 27853; experiment: Antibacterial activity, MIC (Table 5); type: cell-based; conditions: P. aeruginosa 27853, read-out: MIC, 27853
How it was run: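 Using a microbroth dilution format, the minimum inhibitory concentration was recorded as the lowest tested concentration that stopped visible bacterial growth, expressed in μg/mL.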

[3] = tested on: Neisseria meningitidis (N. meningitidis) 13090; experiment: Antibacterial activity, MIC (Table 8); type: cell-based
How it was run: (§1)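 Activity was determined by microbroth dilution. MIC, in μg/mL, is the lowest drug concentration that prevents macroscopically visible growth under the test conditions.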

[4] = tested on: E. coli LZ3111; experiment: Antibacterial activity, MIC, quinolone resistant strain (Table 2); type: cell-based; conditions: Escherichia coli, LZ3111, read-out: MIC LZ3111
How it was run: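 Growth inhibition assessed by serial drug dilution in broth; endpoint was absence of macroscopically visible growth, reported as MIC, μg/mL.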

[5] = tested on: E. coli ELZ4000; experiment: Antibacterial activity, MIC, multi-drug resistant clinical isolate (Table 3); type: cell-based; conditions: Escherichia coli, ELZ4000, read-out: MIC ELZ4000
How it was run: (§2)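 Values derive from a microbroth dilution method, taking as MIC (μg/mL) the lowest tested concentration without macroscopically visible growth.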

[6] = tested on: E. coli ELZ4251; experiment: as above; type: cell-based; conditions: Escherichia coli
How it was run: as §2

[7] = tested on: Staphylococcus aureus (S. aureus) 29213; experiment: Antibacterial activity, microbroth dilution MIC (Table 1); type: cell-based; conditions: microbroth dilution, Gram-positive S. aureus 29213, read-out: MIC, 29213
How it was run: (§3)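 Values are MICs (μg/mL): the smallest drug amount at which macroscopically visible bacterial growth is absent under assay conditions, from a microdilution method in broth.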

[8] = tested on: Escherichia coli (E. coli) BAS849; experiment: as above; type: cell-based; conditions: microbroth dilution, super sensitive Gram-negative E. coli BAS849, read-out: MIC, BAS849
How it was run: as §3

[9] = tested on: A. baumannii MXX2240; experiment: Antibacterial activity, MIC, resistant strain (Table 4); type: cell-based; conditions: Acinetobacter baumannii, MXX2240; resistant A. baumannii MMX2240, multi-drug resistant clinical isolate; read-out: MIC, MMX2240
How it was run: (§4)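 Values are minimum inhibitory concentrations in μg/mL from broth microdilution, meaning no macroscopically visible growth at that concentration. Resistant MXX isolates are multi-drug resistant clinical strains.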

[10] = tested on: K. pneumoniae MXX1232; experiment: as above; type: cell-based; conditions: Klebsiella pneumoniae, MXX1232; resistant K. pneumoniae MMX1232, multi-drug resistant clinical isolate; read-out: MIC, MMX1232
How it was run: as §4

[11] = tested on: Moraxella catarrhalis (M. catarrhalis) 25238; experiment: Antibacterial activity, MIC (Table 7); type: cell-based
Excerpt: The antibacterial activity from a microbroth dilution method may be presented as the minimum inhibitory concentration (MIC in μg/mL). The MIC value is the lowest concentration of drug which prevents macroscopically visible growth under test conditions.
Antibacterial activity of test compounds against the Gram-negative bacteria Haemophilus influenzae (H. influenzae) 49247 is shown in Table 6, Moraxella catarrhalis (M. catarrhalis) 25238 is shown in Table 7 and Neisseria meningitidis (N. meningitidis) 13090 is shown in Table 8.

[12] = tested on: Acinetobacter baumannii (A. baumannii) BAA747; experiment: Antibacterial activity, MIC (Table 4); type: cell-based; conditions: A. baumannii BAA747, read-out: MIC, BAA747
How it was run: as §4

[13] = tested on: Klebsiella pneumoniae (K. pneumoniae) 35657; experiment: Antibacterial activity, MIC (Table 4); type: cell-based; conditions: K. pneumoniae 35657, read-out: MIC, 35657
How it was run: as §4

[14] = tested on: Haemophilus influenzae (H. influenzae) 49247; experiment: Antibacterial activity, MIC (Table 6); type: cell-based
How it was run: as §1

SMILES	MIC [1] [µg/mL]	MIC [2] [µg/mL]	MIC [3] [µg/mL]	MIC [4] [µg/mL]	MIC [5] [µg/mL]	MIC [6] [µg/mL]	MIC [7] [µg/mL]	MIC [8] [µg/mL]	MIC [9] [µg/mL]	MIC [10] [µg/mL]	MIC [11] [µg/mL]	MIC [12] [µg/mL]	MIC [13] [µg/mL]	MIC [14] [µg/mL]
CCc1c(-c2ccc3c(c2)cc(CNC(C)(C)C)n3C)[nH]c(=O)c(C(=O)O)c1O [Cpd 193, 6-(2-((tert-butylamino)methyl)-1-methyl-1H-indol-5-yl)-5-ethyl-4-hydroxy-2-oxo-1,2-dihydropyridine-3-carboxylic acid]	< 1	3.5 to 12.5 (≈ 8.81 to 31.4 µM)	< 1	3.5 to 12.5 (≈ 8.81 to 31.4 µM)	3.5 to 12.5 (≈ 8.81 to 31.4 µM)	3.5 to 12.5 (≈ 8.81 to 31.4 µM)	3.5 to 12.5 (≈ 8.81 to 31.4 µM)	< 1	1 to 3.5 (≈ 2.52 to 8.81 µM)	12.5 to 150 (≈ 31.4 to 377 µM)	< 1	< 1	< 1	< 1
CCc1c(-c2ccc3c(c2)cc(CNC(C)C)n3C)[nH]c(=O)c(C(=O)O)c1O [Cpd 199, 5-ethyl-4-hydroxy-6-(2-((isopropylamino)methyl)-1-methyl-1H-indol-5-yl)-2-oxo-1,2-dihydropyridine-3-carboxylic acid]	< 1	3.5 to 12.5 (≈ 9.13 to 32.6 µM)	< 1	1 to 3.5 (≈ 2.61 to 9.13 µM)	3.5 to 12.5 (≈ 9.13 to 32.6 µM)	3.5 to 12.5 (≈ 9.13 to 32.6 µM)	3.5 to 12.5 (≈ 9.13 to 32.6 µM)	< 1	1 to 3.5 (≈ 2.61 to 9.13 µM)	12.5 to 150 (≈ 32.6 to 391 µM)	< 1	< 1	< 1	< 1
CCc1c(-c2ccc3c(c2)cc(CN2CCC(N(C)C)C2)n3C)[nH]c(=O)c(C(=O)O)c1O (stereo not drawn) [Cpd 200, 6-(2-((3-(dimethylamino)pyrrolidin-1-yl)methyl)-1-methyl-1H-indol-5-yl)-5-ethyl-4-hydroxy-2-oxo-1,2-dihydropyridine-3-carboxylic acid]	1 to 3.5 (≈ 2.28 to 7.98 µM)	12.5 to 150 (≈ 28.5 to 342 µM)	< 1	1 to 3.5 (≈ 2.28 to 7.98 µM)	12.5 to 150 (≈ 28.5 to 342 µM)	12.5 to 150 (≈ 28.5 to 342 µM)	3.5 to 12.5 (≈ 7.98 to 28.5 µM)	< 1	12.5 to 150 (≈ 28.5 to 342 µM)	12.5 to 150 (≈ 28.5 to 342 µM)	1 to 3.5 (≈ 2.28 to 7.98 µM)	3.5 to 12.5 (≈ 7.98 to 28.5 µM)	12.5 to 150 (≈ 28.5 to 342 µM)	1 to 3.5 (≈ 2.28 to 7.98 µM)
CCc1c(-c2ccc3c(c2)cc(CNCCF)n3C)[nH]c(=O)c(C(=O)O)c1O [Cpd 201, 5-ethyl-6-(2-((2-fluoroethylamino)methyl)-1-methyl-1H-indol-5-yl)-4-hydroxy-2-oxo-1,2-dihydropyridine-3-carboxylic acid]	< 1	3.5 to 12.5 (≈ 9.03 to 32.3 µM)	< 1	1 to 3.5 (≈ 2.58 to 9.03 µM)	3.5 to 12.5 (≈ 9.03 to 32.3 µM)	3.5 to 12.5 (≈ 9.03 to 32.3 µM)	3.5 to 12.5 (≈ 9.03 to 32.3 µM)	< 1	3.5 to 12.5 (≈ 9.03 to 32.3 µM)	12.5 to 150 (≈ 32.3 to 387 µM)	< 1	< 1	< 1	< 1
CCc1c(-c2ccc3c(c2)cc(CN(C)C2CCC2)n3C)[nH]c(=O)c(C(=O)O)c1O.Cl [Cpd 209, 6-(2-((cyclobutyl(methyl)amino)methyl)-1-methyl-1H-indol-5-yl)-5-ethyl-4-hydroxy-2-oxo-1,2-dihydropyridine-3-carboxylic acid hydrochloride]	< 1	12.5 to 150	< 1	3.5 to 12.5	12.5 to 150	12.5 to 150	3.5 to 12.5	< 1	3.5 to 12.5	12.5 to 150	< 1	1 to 3.5	1 to 3.5	< 1
CCc1c(-c2ccc3c(c2)cc(CN(C)CC2CC2)n3C)[nH]c(=O)c(C(=O)O)c1O.Cl [Cpd 210, 6-(2-(((cyclopropylmethyl)(methyl)amino)methyl)-1-methyl-1H-indol-5-yl)-5-ethyl-4-hydroxy-2-oxo-1,2-dihydropyridine-3-carboxylic acid hydrochloride]	< 1	12.5 to 150	< 1	3.5 to 12.5	12.5 to 150	3.5 to 12.5	3.5 to 12.5	< 1	12.5 to 150	12.5 to 150	< 1	1 to 3.5	3.5 to 12.5	1 to 3.5
